Test results reported in article PMC6332545, “Biochemical properties and subcellular localization of six members of the HXK family in maize and its metabolic contribution to embryo germination” (BMC Plant Biology, 2019).
Blank lines part the entries; values can stand above or below the compound they belong to.

Legend:
Format in all cases: biochemical
ZmHXK8 = molecular target: T1, ZmHXK8 (Zea mays, UniProt B4FB85); assay: coupled G6PDH/NADP+ assay, A340; settings: 50 mM Glc, 2 mM ATP, 2 mM MgCl2, pH 8.0; product inhibition; PEP/pyruvate kinase listed in the reaction medium; read-out: ADP
T1 construct: full length, soluble; E. coli BL21-CodonPlus(DE3)-RIL
Excerpt: coupled G6PDH/NADP+ assay, A340 on ZmHXK8

ZmHXK6Δ30 [1] = molecular target: T2, ZmHXK6Δ30 (Zea mays, UniProt A0A1D6NCX2); assay: coupled G6PDH/NADP+ assay, A340; settings: 2 mM MgCl2, pH 8.0
T2 construct: gene LOC103651223; N-terminal mitochondrial anchor deleted (87 nucleotides after the start codon, first 30 residues); E. coli BL21-CodonPlus(DE3)-RIL
Excerpt: coupled G6PDH/NADP+ assay, A340 on ZmHXK6Δ30

ZmHXK7 = molecular target: T3, ZmHXK7 (Zea mays, UniProt C0HF79); assay: coupled G6PDH/NADP+ assay, A340; settings: 5 mM Glc, 2 mM ATP, 2 mM MgCl2, pH 8.0; product inhibition; PEP/pyruvate kinase listed in the reaction medium; read-out: ADP
T3 construct: full length, soluble; E. coli BL21-CodonPlus(DE3)-RIL
Excerpt: coupled G6PDH/NADP+ assay, A340 on ZmHXK7

ZmHXK5Δ30 [2] = molecular target: T4, ZmHXK5Δ30 (Zea mays, UniProt A0A1D6MAK9); assay: coupled G6PDH/NADP+ assay, A340; settings: 2 mM MgCl2, pH 8.0
T4 construct: N-terminal mitochondrial anchor deleted (87 nucleotides after the start codon, first 30 residues); E. coli BL21-CodonPlus(DE3)-RIL
Excerpt: coupled G6PDH/NADP+ assay, A340 on ZmHXK5Δ30

ZmHXK4Δ30 [3] = molecular target: T5, ZmHXK4Δ30 (Zea mays, UniProt K7VX77); assay: coupled G6PDH/NADP+ assay, A340; settings: 2 mM MgCl2, pH 8.0
T5 construct: gene LOC542510; N-terminal mitochondrial anchor deleted (87 nucleotides after the start codon, first 30 residues); E. coli BL21-CodonPlus(DE3)-RIL
Excerpt: coupled G6PDH/NADP+ assay, A340 on ZmHXK4Δ30

ZmHXK6Δ30 [4] = molecular target: T2, ZmHXK6Δ30; assay: coupled pyruvate kinase/lactate dehydrogenase NADH assay, A340; settings: read-out: Substrate / Mannose; 2 mM ATP, 2 mM MgCl2, pH 8.0
Excerpt: coupled pyruvate kinase/lactate dehydrogenase NADH assay, A340 on ZmHXK6Δ30

ZmHXK4Δ30 [5] = molecular target: T5, ZmHXK4Δ30; assay: as above; settings: read-out: Substrate / Mannose; 2 mM ATP, 2 mM MgCl2, pH 8.0
Excerpt: coupled pyruvate kinase/lactate dehydrogenase NADH assay, A340 on ZmHXK4Δ30

ZmHXK5Δ30 [6] = molecular target: T4, ZmHXK5Δ30; assay: as above; settings: read-out: Substrate / Mannose; 2 mM ATP, 2 mM MgCl2, pH 8.0
Excerpt: coupled pyruvate kinase/lactate dehydrogenase NADH assay, A340 on ZmHXK5Δ30

[7] = 5 mM Glc, 2 mM ATP, product inhibition, PEP/pyruvate kinase listed in the reaction medium, read-out: ADP
[8] = read-out: Substrate / ATP, 5 mM Glc
[9] = read-out: Substrate / Glucose, 2 mM ATP

IC50 (ZmHXK8): 3120 ± 1140 µM | IC50 (ZmHXK6Δ30 [1]; [7]): 720 ± 140 µM | IC50 (ZmHXK7): 6470 ± 1140 µM | IC50 (ZmHXK5Δ30 [2]; [7]): 690 ± 150 µM | IC50 (ZmHXK4Δ30 [3]; [7]): 710 ± 150 µM
Compound: Nc1ncnc2c1ncn2[C@@H]1O[C@H](COP(=O)(O)OP(=O)(O)O)[C@@H](O)[C@H]1O [ADP]

Km (ZmHXK6Δ30 [1]; [8]): 199 ± 12.8 µM | Km (ZmHXK5Δ30 [2]; [8]): 136 ± 11.5 µM | Km (ZmHXK4Δ30 [3]; [8]): 135 ± 25.7 µM
Compound: Nc1ncnc2c1ncn2[C@@H]1O[C@H](COP(=O)(O)OP(=O)(O)OP(=O)(O)O)[C@@H](O)[C@H]1O [ATP]

Km (ZmHXK6Δ30 [1]; [9]): 65.9 ± 15.2 µM | Km (ZmHXK5Δ30 [2]; [9]): 137 ± 20 µM | Km (ZmHXK4Δ30 [3]; [9]): 196 ± 32 µM
Compound: OC[C@H]1OC(O)[C@H](O)[C@@H](O)[C@@H]1O (some centres unmarked) [glucose]

Km (ZmHXK6Δ30 [4]): 48.9 ± 1.06 µM | Km (ZmHXK4Δ30 [5]): 139 ± 22.4 µM | Km (ZmHXK5Δ30 [6]): 120 ± 33.3 µM
Compound: OC[C@H]1OC(O)[C@@H](O)[C@@H](O)[C@@H]1O (some centres unmarked) [mannose]
